From patent publication US8158621B2, “Methods of treating or preventing autoimmune diseases with 2,4-pyrimidinediamine compounds” (Rigel Pharmaceuticals, Inc., priority 2002, dated 2012)

Experiments:
[1] = tested on: cultured human mast cells (CHMC); assay: CHMC low cell density ionomycin activation: tryptase assay; type: cell-based
[2] = tested on: cultured human mast cells (CHMC); assay: CHMC high cell density IgE activation: hexos; type: cell-based
Method: (§1) After sensitizing, cells are counted, pelleted (1000 rpm, 5-10 minutes), and resuspended at 1-2 ×10^6 cells/ml in MT buffer. Add 100 ul of cell suspension to each well and 100 ul of compound dilutions. The final vehicle concentration is 0.5% DMSO. Incubate at 37° C. (5% CO2) for 1 hour. After 1 hour of compound treatment, stimulate cells with 6× anti-IgE. Mix wells with the cells and allow plates to incubate at 37° C. (5% CO2) for one hour. After 1 hour incubation, pellet cells (10 minutes, 1000 RPM) and collect 200 ul per well of the supernatant, being careful not to disturb pellet. Place the supernatant plate on ice. During the 7-hour step (see next) perform tryptase assay on supernatant that had been diluted 1:500. Resuspend cell pellet in 240 ul of CM media containing 0.5% DMSO and corresponding concentration of compound. Incubate CHMC cells for 7 hours at 37° C. (5% CO2). After incubation, pellet cells (1000 RPM, 10 minutes) and collect 225 ul per well and place in −80° C. until ready to perform ELISAS. ELISAS are performed on appropriately diluted samples (determined empirically for each donor cell population so that the sample measurement falls within the standard curve) following the supplier's instructions.
(§2) Add 50 uL of BMMC cell supernatant (see above) to the hexoseaminidase substrate, place at 37° C. for 30 minutes and read the plate at 5, 10, 15, and 30 minutes on a spectrophotometer.

[3] = tested on: cultured human mast cells (CHMC); assay: CHMC high cell density IgE activation: tryptase; type: cell-based
Method: as §1

[4] = tested on: cultured human mast cells (CHMC); assay: CHMC high cell density IgE activation: histamine; type: cell-based
Method: as §1

[5] = tested on: cultured human mast cells (CHMC); assay: CHMC high cell density IgE activation: LTC4; type: cell-based
Method: as §1

[6] = tested on: cultured human mast cells (CHMC); assay: CHMC high cell density IgE activation: TNFalpha; type: cell-based; details: read-out: CHMC high density TNF-alpha
Method: as §1

[7] = tested on: cultured human mast cells (CHMC); assay: CHMC high cell density IgE activation: IL-13; type: cell-based
Method: as §1

[8] = tested on: Human Jurkat T-cells (clone N); assay: Jurkat T-cell activation (anti-TCR, CD69 upregulation); type: cell-based
How it was run: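 Jurkat cells in RPMI + 5% FBS preincubated with compound 1 h at 37 °C, then stimulated with anti-TCR C305 at 500 ng/ml for 20 h. CD69 surface expression stained with anti-CD69-APC and read by flow cytometry; IC50 versus solvent-only control.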

[9] = tested on: basophil cells (human peripheral blood); assay: Basophil ionomycin activation: histamine release assay; type: cell-based; details: basophils, ionomycin activation, histamine release; read-out: Basophils Ionomycin Histamine IC50
Method: The basophil activation assay was carried out using whole human peripheral blood from donors allergic to dust mites with the majority of the red blood cells removed by dextran sedimentation. Human peripheral blood was mixed 1:1 with 3% dextran T500 and RBCs were allowed to settle for 20-25min. The upper fraction was diluted with 3 volumes of D-PBS and cells were spun down for 10 min at 1500 rpm, RT. Supernatant was aspirated and cells were washed in an equal volume MT-buffer. Finally, cells were resuspended in MT-buffer containing 0.5% DMSO in the original blood volume. 80 uL cells were mixed with 20 uL compound in the presence of 0.5% DMSO, in triplicate, in a V-bottom 96-well tissue culture plate. A dose range of 8 compound concentrations was tested resulting in a 10-point dose response curve including maximum (stimulated) and minimum (unstimulated) response. […] The cells were stimulated for 30 minutes at 37° C., 5% CO2. The plate was spun for 10 min at 1500 rpm at room temperature and 80 uL the supernatant was harvested for histamine content analysis using the histamine ELISA kit supplied by Immunotech. The ELISA was performed according to supplier's instructions.
Assays for ionomycin-induced basophil cell degranulation were carried out as described for the Basophil IgE or Dustmite Activation Assay (Section 7.5.5, supra), with the exception that following incubation with compound, cells were stimulated with 20 μl of 2 μM ionomycin.

[10] = Sheep model of allergic asthma; type: in vivo; details: dose, pretreatment and vehicle per compound as in TABLE 5
Method: In the sheep model of allergic asthma, sheep are administered aerosols of test article via an endotracheal tube, followed by an aerosol challenge with antigen extracted from the roundworm, Ascaris suum, to which the sheep are naturally allergic. Allergen challenge leads to direct bronchoconstriction (both EAR and LAR) and a persistent non-specific AHR. These three characteristics are similar to those seen in human allergic asthmatics. The activity of the test agent is determined by changes in the lung resistance (RL), which is calculated from measurements of transpulmonary pressure, flow, and respiratory volume. […] The LAR is a less pronounced increase in RL, which starts approximately 5-6 hours following allergen challenge and is resolved by 8 hours post-challenge. Twenty-four hours after the challenge, a dose response to carbachol is measured to determine the AHR, which is expressed as the dose of carbachol required to increase RL by 400% over baseline. (This measurement is referred to as the provocative concentration of carbachol that elicits a 400% increase in RL over baseline (PC400). The data are compared to historical control data for the same individual when administered a saline control aerosol and challenged with Ascaris suum.

Primary T-cells = assay: Primary T-cell cytokine production (αCD3/αCD28): IL-2; type: cell-based, human; details: read-out: 1° T-Cell IL2 IC50
Method: 2E8-4E8 PBMC or proliferating T cells grown in rIL-2 from healthy human donors were suspended in PBS were spun down (1500 rpm, 8-10 minutes) and resuspended in 100 ml RPMI Complete media (1% Pen-Strep, 1% L-Glutamine, 10 mM HEPES). The cells were plated in T175 flasks (37° C., 5% CO2) and monocytes were allowed to adhere for 2-3 hours. After monocyte attachment, non-adherent cells were harvested, counted by hemocytometer, washed several times with PBS then resuspended in Yssels Complete Media (Modified IMDM Media with 1% Human AB Serum, 1% Pen-Strep, 1% L-Glutamine, 10 mM HEPES) at […]. 90 uL of the cell dilution were then added to compounds diluted to 2× in Yssel's media and incubated for 30 minutes at 37° C. (5% CO2). After this preincubation step the compound/cell mixture was transferred to stimulation plates, as described below.
Stimulation plates were prepared by coating 96 well plates with 5 μg/ml αCD3 (BD PharMingen, Catalog #555336)+10 μg/ml αCD28 (Beckman Coulter, Catalog #IM1376) in PBS (no Ca^2+/Mg^2+) at 37° C. (5% CO2) for at 3-5 hours. After incubation with the stimulation antibodies, the cocktail was removed and the plates washed 3 times with PBS prior to addition of the primary T cell/compound mixture.
The compound/cell mixture was transferred to the stimulation plates and incubated for 18 hr at 37° C. (5% CO2). After the cell stimulation, ˜150 μl supernatant were transferred from each well into 96-well filter plates (Coming PVDF Filter Plates) spun down (2000 rpm, 2-3 minutes) and either used immediately for ELISA or LUMINEX measurements or frozen down at −80° C. for future use.
IL-2 ELISAs were performed using the Quantikine Human IL-2 ELISA kit (R&D Systems, Catalog # D2050) as described by the manufacturer and absorption was measured on a spectrophotometer at 450 nm wavelength. Blank values were substracted and absorbances were converted to pg/mL based on the standard curve.
Luminex immunoassay multiplexing for TNF, IL-2, GMSCF, IL-4 and IFNg was performed essentially as described by the manufacturer (Upstate Biotechnology). Essentially 50 uL of sample was diluted into 50 uL assay diluent and 50 uL incubation buffer, then incubated with 100 uL of the diluted detection antibody for 1 hr at RT in the dark. The filter plate was washed 2× in Wash Buffer, then incubated with 100 uL of the diluted secondary reagent (SAV-RPE) for 30 min at RT in the dark. Finally the plates were washed 3 times and bead identification and RPE fluorescent measured by the Luminex instrument.
Varied concentrations of compound were compared to solvent only to determine the inhibition of T-cell activation IC50 of each compound.

[11] = tested on: cultured human mast cells (CHMC); assay: CHMC low cell density IgE activation: tryptase assay; type: cell-based
How it was run: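 Low-density CHMC assay: donor-adjusted 1000-1500 cells/well, MT buffer, 1 hr 37° C preincubation; anti-IgE stimulus 30 min 37° C versus MT-only controls; supernatant tryptase by substrate, 30 min RT.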

[12] = tested on: bone marrow derived mast cells (BMMC); assay: BMMC high cell density IgE activation: hexosaminidase; type: cell-based, mouse; details: high cell density; read-out: BMMC anti-IgE Hexos.
Method: (§3) After sensitizing, cells are counted, pelleted (1000 rpm, 5-10 minutes), and resuspended at 1-3×10^6 cells/ml in MT buffer. Add 100 ul of cell suspension to each well and 100 ul of compound dilutions. The final vehicle concentration is 0.5% DMSO. Incubate at 37° C. (5% CO2) for 1 hour. After 1 hour of compound treatment, stimulate cells with 6× stimulus (60 ng/ml DNP-BSA). Mix wells with the cells and allow plates to incubate at 37° C. (5% CO2) for one hour. After 1 hour incubation, pellet cells (10 minutes, 1000 RPM) and collect 200 ul per well of the supernatant, being careful not to disturb pellet, and transfer to a clean tube or 96-well plate. Place the supernatant plate on ice. During the 4-5 hour step (see next) perform the hexosiminidase assay. Resuspend cell pellet in 240 ul WEI-conditioned media containing 0.5% DMSO and corresponding concentration of compound. Incubate BMMC cells for 4-5 hours at 37° C. (5% CO2). After incubation, pellet cells (1000 RPM, 10 minutes) and collect 225 ul per well and place in −80° C. until ready to perform ELISAS. ELISAS are performed on appropriately diluted samples (determined empirically for each donor cell population so that the sample measurement falls within the standard curve) following the supplier's instructions.
as §2

[13] = tested on: bone marrow derived mast cells (BMMC); assay: BMMC high cell density IgE activation: TNFalpha; type: cell-based, mouse; details: high cell density; read-out: BMMC anti-IgE TNF-alpha
Method: as §3

[14] = tested on: bone marrow derived mast cells (BMMC); assay: BMMC high cell density IgE activation: IL-6; type: cell-based, mouse; details: high cell density; read-out: BMMC anti-IgE IL-6
Method: as §3

Syk kinase = molecular target: T1, Syk kinase (Homo sapiens, UniProt P43405); assay: Syk kinase biochemical fluorescence polarization assay; details: isolated Syk kinase, fluorescence polarization, 4 uM ATP
T1 construct: purchased Upstate, Lake Placid NY

[15] = Low Density CHMC, ionomycin activation, tryptase release, read-out: CHMC Ionomycin Tryptase IC50
[16] = Low Density, read-out: CHMC Ionomycin Tryptase
[17] = low cell density, read-out: CHMC Ionomycin Tryptase
[18] = Low Density, read-out: CHMC anti-IgE Tryptase

Structure (SMILES) | IC50 [2] | IC50 [3] | IC50 [4] | IC50 [5] | IC50 [6] | IC50 [7] | IC50 [8] | IC50 [1, 16] | IC50 (Syk kinase) | also measured
OCc1cc2cc(Nc3ncc(F)c(Nc4cccc(O)c4)n3)ccc2[nH]1 [Compound R926700] | < 1100 nM | < 1100 nM | < 1100 nM | < 1100 nM | < 1100 nM | 2050 nM | 510 nM | – | – | IC50 [1, 15]: > 10000 nM
CNC(=O)COc1cccc(Nc2ncc(F)c(Nc3ccc4c(c3)OCCO4)n2)c1 [Compound R926495] | – | – | – | – | – | – | 11900 nM | – | – | IC50 [9]: > 10000 nM; EAR [10]: greatly reduced; LAR and AHR [10]: blocked; IC50 (Primary T-cells): 643 nM
Cc1cc(Nc2nc(Nc3cccc(OCCN4CCNCC4)c3)ncc2F)cc(C)c1O [Compound R945142] | > 2000 nM | > 2000 nM | > 10000 nM | – | > 2000 nM | > 10000 nM | 1880 nM | > 10000 nM | – | –
COc1c(C)cc(Nc2ncc(F)c(Nc3ccc4c(c3)NC(=O)C(C)(C)O4)n2)cc1Cl [Compound R940361] | – | – | – | – | – | – | 390 nM | – | 69 nM | IC50 ([11]; low cell density, read-out: CHMC anti-IgE Tryptase): 47 nM; IC50 [1, 17]: 2200 nM; IC50 [12]: 60 nM; IC50 [13]: 70 nM; IC50 [14]: 100 nM
Cc1cc(Nc2ncc(F)c(Nc3cc(C)c(O)c(Cl)c3)n2)cc(Cl)c1O [Compound R940216] | < 1100 nM | < 1100 nM | 1180 nM | < 1100 nM | 3190 nM | 3010 nM | 1280 nM | 7300 nM | – | IC50 [11, 18]: 268 nM
Nc1cc(Cl)cc(Nc2ncc(F)c(Nc3cc(N)cc(Cl)c3)n2)c1 [Compound R950141] | 567 nM | 618 nM | 627 nM | 201 nM | 1060 nM | 798 nM | 2380 nM | > 10000 nM | – | IC50 [11, 18]: 310 nM
COC(=O)c1cc2cc(Nc3ncc(F)c(Nc4cccc(O)c4)n3)ccc2o1 [Compound R926614] | > 10000 nM | > 10000 nM | – | – | > 10000 nM | 6440 nM | 6540 nM | – | – | IC50 ([11]; Low Density CHMC, anti-IgE activation, tryptase release, read-out: CHMC anti-IgE Tryptase IC50): 228 nM; IC50 [1, 15]: > 10000 nM
O=C(c1cc2cc(Nc3ncc(F)c(Nc4cccc(O)c4)n3)ccc2o1)N1CCNCC1 [Compound R926502] | > 2000 nM | > 2000 nM | > 2000 nM | – | – | > 2000 nM | 1630 nM | – | 217 nM | IC50 [9]: > 10000 nM
Cn1ncc2ccc(Nc3ncc(F)c(Nc4ccc(Cl)c(Cl)c4)n3)cc21 [Compound R935393] | – | – | – | – | – | – | > 10000 nM | – | 450 nM | IC50 [1, 17]: > 10000 nM; IC50 [12]: 2440 nM; IC50 [13]: 1470 nM; IC50 [14]: 520 nM
